In patent US20260327655A1, “SMALL-MOLECULE REGULATED ALTERNATIVE SPLICING” (priority 2023, published 2026) one finds fold induction data, which are given here for 1 compound.

For test [1], the system named is RS2-3 minigene (Firefly Luciferase), HEK-293T cells. Kind of test: Luciferase induction assay, RS2-3 with splice modulator compounds in HEK-293T cells. The conditions noted are these: Homo sapiens, 18 hours, n of 3, read-out: Mean fold-induction of luciferase (relative to vehicle control). In kind it is cell-based.
Test [2] has as its system RS3-13 minigene (Firefly Luciferase), HEK-293T cells. Kind of test: Luciferase induction assay, RS3-13 with splice modulator compounds in HEK-293T cells. The conditions noted are these: Homo sapiens, 18 hours, n of 3, read-out: Mean fold-induction of luciferase (relative to vehicle control). The test is classed as cell-based.

With `CCN1CC(c2ccc(-c3ccc(-c4ccc5nn(C)cc5c4)cc3O)nn2)C1` [Compound 24A, 2-[6-(1-ethylazetidin-3-yl)pyridazin-3-yl]-5-(2-methyl-2H-indazol-5-yl)phenol], the fold induction at 0.1 µM was determined as 14.5 in test [1] (RS2-3, 100 nM) and 6.27 in test [2] (RS3-13, 100 nM). Further, the fold induction at 1 µM turned out to be 42.6 in test [1] (RS2-3, 1,000 nM) and 42.4 in test [2] (RS3-13, 1,000 nM).
